Data from patent US20250263376A1, “(E)-N-CINNAMOYLAMINOALKANOLS WITH MELANOGENESIS INHIBITORY ACTIVITY” (Uniwersytet Jagiellonski, priority 2024, published 2025).

How the values were obtained:
[1] = tested on: keratinocytes (HaCaT); assay: Safety, MTT test in keratinocytes; assay type: cell-based; conditions: 48 hours
Protocol: (§1) In order to test the safety of the compounds, both normal human cells were used: keratinocytes (HaCaT), fibroblasts (BJ), primary melanocytes that occur in the skin, as well as human cancer cells: the hepatocarcinoma line HepG2 and the neuroblastoma line SH-SY5Y, which are considered a model for the assessment of hepatocytotoxicity and neurocytotoxicity. The concentrations of the tested compounds in the range of […] were used in the studies. The cell lines used in the research were purchased from the American Type Culture Collection (ATCC) and were cultured in media recommended by the manufacturer with the addition of FBS and antibiotics in an incubator ensuring appropriate culture conditions, i.e. humidity, temperature and CO2 concentration. Cells were seeded into multiwell plates and incubated with the test compounds for 48 hours. After this time, MTT and LDH tests were performed to assess cell viability. The MTT test is based on the ability to transform the substrate: [3-(4,5-dimethyl-2-thiazolyl)-2,5-diphenyl-2H-tetrazolium bromide into a colored product only by living cells. The absorbance at 570 nm, which corresponds to the absorption maximum for the product, is directly proportional to cell viability. The LDH test is based on testing the activity of the enzyme lactate dehydrogenase in the culture medium, which is released from cells as a result of damage to the cell membrane, e.g. as a result of cell death. Triton X-100 was used as a positive control in the test. The determination is colorimetric, the substrate is transformed by the released enzyme into a colored product, an increase in absorbance indicates a larger amount of the released enzyme, and thus confirms greater damage to cell membranes. Tables 7 and 8 present the results obtained, which correspond to the viability of cells incubated with the compounds in relation to the viability of cells constituting a control sample, i.e. incubated with the solvent (DMSO) at the same concentration as in the case of the groups tested in the MTT test or in relation to the results obtained for the Triton X-100 positive control in the LDH test. They indicate that the compounds are safe at the concentrations tested.

[2] = tested on: fibroblasts (BJ); assay: Safety, LDH test in fibroblasts; assay type: cell-based; conditions: 48 hours, vs Triton X-100
Protocol: as §1

[3] = tested on: primary melanocytes; assay: Safety, MTT test in primary melanocytes; assay type: cell-based; conditions: 48 hours
Protocol: as §1

[4] = tested on: primary melanocytes; assay: Safety, LDH test in primary melanocytes; assay type: cell-based; conditions: 48 hours, vs Triton X-100
Protocol: as §1

[5] = tested on: hepatocarcinoma HepG2; assay: Safety, MTT test in HepG2; assay type: cell-based; conditions: 48 hours
Protocol: as §1

[6] = tested on: hepatocarcinoma HepG2; assay: Safety, LDH test in HepG2; assay type: cell-based; conditions: 48 hours, vs Triton X-100
Protocol: as §1

[7] = tested on: neuroblastoma SH-SY5Y; assay: Safety, MTT test in SH-SY5Y; assay type: cell-based; conditions: 48 hours
Protocol: as §1

[8] = tested on: neuroblastoma SH-SY5Y; assay: Safety, LDH test in SH-SY5Y; assay type: cell-based; conditions: 48 hours, vs Triton X-100
Protocol: as §1

[9] = tested on: S. typhimurium TA98; assay: Ames microplate test, TA98; assay type: cell-based, Salmonella typhimurium; conditions: without S9
Protocol: (§2) Bacteria were grown overnight in growth medium.

[10] = tested on: S. typhimurium TA100; assay: Ames microplate test, TA100; assay type: cell-based, Salmonella typhimurium; conditions: without S9
[11] = tested on: S. typhimurium TA1537; assay: Ames microplate test, TA1537; assay type: cell-based, Salmonella typhimurium; conditions: without S9
Protocol: as §2

[12] = tested on: S. typhimurium TA1535; assay: Ames microplate test, TA1535; conditions: without S9;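 further: bacteria exposed 90 min at 37 °C in exposure medium, then 48 h in indicator medium in 384-well plates, yellow (revertant) wells counted per condition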
[13] = tested on: E. coli WP2; assay: Ames microplate test, E. coli WP2; conditions: without S9;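 further: bacteria exposed to compound for 90 min at 37 °C in 24-well plates, then transferred with indicator medium to 384-well plates and incubated 48 h before yellow well counting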

SMILES: Cc1ccc(/C=C/C(=O)NCCCCCO)cc1 [H-415/21, (2E)-N-(5-hydroxypentyl)-3-(4-methylphenyl)prop-2-enamide]
- MTT, Keratinocytes (HaCaT) ([1]; 100 μM): 101.11 ± 2.03 % of solvent control
- MTT, Keratinocytes (HaCaT) ([1]; 150 μM): 101.78 ± 2.32 % of solvent control
- MTT, Keratinocytes (HaCaT) ([1]; 200 μM): 100.88 ± 1.40 % of solvent control
- MTT, Keratinocytes (HaCaT) ([1]; 250 μM): 88.54 ± 3.74 % of solvent control
- LDH, Fibroblasts (BJ) ([2]; 100 μM): 8.81 percentage of positive control
- LDH, Fibroblasts (BJ) ([2]; 150 μM): 8.75 percentage of positive control
- LDH, Fibroblasts (BJ) ([2]; 200 μM): 9.82 percentage of positive control
- LDH, Fibroblasts (BJ) ([2]; 250 μM): 16.63 percentage of positive control
- MTT, Primary melanocytes ([3]; 100 μM): 103.27 ± 1.88 % of solvent control
- MTT, Primary melanocytes ([3]; 150 μM): 99.89 ± 2.43 % of solvent control
- MTT, Primary melanocytes ([3]; 200 μM): 94.81 ± 2.92 % of solvent control
- MTT, Primary melanocytes ([3]; 250 μM): 87.64 ± 1.44 % of solvent control
- LDH, Primary melanocytes ([4]; 100 μM): 4.22 percentage of positive control
- LDH, Primary melanocytes ([4]; 150 μM): 6.01 percentage of positive control
- LDH, Primary melanocytes ([4]; 200 μM): 8.34 percentage of positive control
- LDH, Primary melanocytes ([4]; 250 μM): 14.94 percentage of positive control
- MTT, Hepatocarcinoma HepG2 ([5]; 100 μM): 100.32 ± 1.75 % of solvent control
- MTT, Hepatocarcinoma HepG2 ([5]; 150 μM): 99.54 ± 5.74 % of solvent control
- MTT, Hepatocarcinoma HepG2 ([5]; 200 μM): 100.53 ± 3.98 % of solvent control
- MTT, Hepatocarcinoma HepG2 ([5]; 250 μM): 98.90 ± 4.21 % of solvent control
- LDH, Hepatocarcinoma HepG2 ([6]; 100 μM): 3.90 percentage of positive control
- LDH, Hepatocarcinoma HepG2 ([6]; 150 μM): 7.24 percentage of positive control
- LDH, Hepatocarcinoma HepG2 ([6]; 200 μM): 8.92 percentage of positive control
- LDH, Hepatocarcinoma HepG2 ([6]; 250 μM): 15.47 percentage of positive control
- MTT, Neuroblastoma SH-SY5Y ([7]; 100 μM): 100.68 ± 4.63 % of solvent control
- MTT, Neuroblastoma SH-SY5Y ([7]; 150 μM): 99.32 ± 2.96 % of solvent control
- MTT, Neuroblastoma SH-SY5Y ([7]; 200 μM): 100.27 ± 3.50 % of solvent control
- MTT, Neuroblastoma SH-SY5Y ([7]; 250 μM): 101.71 ± 2.38 % of solvent control
- LDH, Neuroblastoma SH-SY5Y ([8]; 100 μM): 3.90 percentage of positive control
- LDH, Neuroblastoma SH-SY5Y ([8]; 150 μM): 7.24 percentage of positive control
- LDH, Neuroblastoma SH-SY5Y ([8]; 200 μM): 8.92 percentage of positive control
- LDH, Neuroblastoma SH-SY5Y ([8]; 250 μM): 10.55 percentage of positive control
- Increase in the number of yellow wells compared to the reference level, TA98 ([9]; 0.5 mM): 0.47
- Increase in the number of yellow wells compared to the reference level, TA98 ([9]; 1.0 mM): 0.24
- Increase in the number of yellow wells compared to the reference level, TA98 ([9]; 2.0 mM): 0.35
- Increase in the number of yellow wells compared to the reference level, TA100 ([10]; 0.5 mM): 0.92
- Increase in the number of yellow wells compared to the reference level, TA100 ([10]; 1.0 mM): 0.58
- Increase in the number of yellow wells compared to the reference level, TA100 ([10]; 2.0 mM): 0.75
- Increase in the number of yellow wells compared to the reference level, TA1537 ([11]; 0.5 mM): 0.33
- Increase in the number of yellow wells compared to the reference level, TA1537 ([11]; 1.0 mM): 0.33
- Increase in the number of yellow wells compared to the reference level, TA1537 ([11]; 2.0 mM): 0.00
- Increase in the number of yellow wells compared to the reference level, TA1535 ([12]; 0.5 mM): 0.21
- Increase in the number of yellow wells compared to the reference level, TA1535 ([12]; 1.0 mM): 0.41
- Increase in the number of yellow wells compared to the reference level, TA1535 ([12]; 2.0 mM): 0.10
- Increase in the number of yellow wells compared to the reference level, E. coli WP2 ([13]; 0.5 mM): 0.64
- Increase in the number of yellow wells compared to the reference level, E. coli WP2 ([13]; 1.0 mM): 0.40
- Increase in the number of yellow wells compared to the reference level, E. coli WP2 ([13]; 2.0 mM): 0.95

SMILES: O=C(/C=C/c1ccc(Cl)cc1)NCCO [H-427/21, (2E)-3-(4-chlorophenyl)-N-(2-hydroxyethyl)prop-2-enamide]
- MTT, Keratinocytes (HaCaT) ([1]; 100 μM): 100.47 ± 3.65 % of solvent control
- MTT, Keratinocytes (HaCaT) ([1]; 150 μM): 98.15 ± 2.63 % of solvent control
- MTT, Keratinocytes (HaCaT) ([1]; 200 μM): 99.24 ± 3.00 % of solvent control
- MTT, Keratinocytes (HaCaT) ([1]; 250 μM): 89.94 ± 4.66 % of solvent control
- LDH, Fibroblasts (BJ) ([2]; 100 μM): 2.75 percentage of positive control
- LDH, Fibroblasts (BJ) ([2]; 150 μM): 5.92 percentage of positive control
- LDH, Fibroblasts (BJ) ([2]; 200 μM): 9.00 percentage of positive control
- LDH, Fibroblasts (BJ) ([2]; 250 μM): 17.32 percentage of positive control
- MTT, Primary melanocytes ([3]; 100 μM): 102.20 ± 2.24 % of solvent control
- MTT, Primary melanocytes ([3]; 150 μM): 100.57 ± 2.18 % of solvent control
- MTT, Primary melanocytes ([3]; 200 μM): 93.78 ± 2.18 % of solvent control
- MTT, Primary melanocytes ([3]; 250 μM): 85.19 ± 2.03 % of solvent control
- LDH, Primary melanocytes ([4]; 100 μM): 3.93 percentage of positive control
- LDH, Primary melanocytes ([4]; 150 μM): 4.44 percentage of positive control
- LDH, Primary melanocytes ([4]; 200 μM): 4.31 percentage of positive control
- LDH, Primary melanocytes ([4]; 250 μM): 15.01 percentage of positive control
- MTT, Hepatocarcinoma HepG2 ([5]; 100 μM): 99.61 ± 4.37 % of solvent control
- MTT, Hepatocarcinoma HepG2 ([5]; 150 μM): 98.44 ± 3.94 % of solvent control
- MTT, Hepatocarcinoma HepG2 ([5]; 200 μM): 97.07 ± 4.00 % of solvent control
- MTT, Hepatocarcinoma HepG2 ([5]; 250 μM): 100.08 ± 10.58 % of solvent control
- LDH, Hepatocarcinoma HepG2 ([6]; 100 μM): 3.09 percentage of positive control
- LDH, Hepatocarcinoma HepG2 ([6]; 150 μM): 4.45 percentage of positive control
- LDH, Hepatocarcinoma HepG2 ([6]; 200 μM): 5.98 percentage of positive control
- LDH, Hepatocarcinoma HepG2 ([6]; 250 μM): 13.51 percentage of positive control
- MTT, Neuroblastoma SH-SY5Y ([7]; 100 μM): 100.48 ± 3.67 % of solvent control
- MTT, Neuroblastoma SH-SY5Y ([7]; 150 μM): 100.96 ± 2.72 % of solvent control
- MTT, Neuroblastoma SH-SY5Y ([7]; 200 μM): 101.30 ± 2.94 % of solvent control
- MTT, Neuroblastoma SH-SY5Y ([7]; 250 μM): 102.60 ± 9.66 % of solvent control
- LDH, Neuroblastoma SH-SY5Y ([8]; 100 μM): 3.09 percentage of positive control
- LDH, Neuroblastoma SH-SY5Y ([8]; 150 μM): 4.45 percentage of positive control
- LDH, Neuroblastoma SH-SY5Y ([8]; 200 μM): 5.98 percentage of positive control
- LDH, Neuroblastoma SH-SY5Y ([8]; 250 μM): 8.87 percentage of positive control
